In patent US12029797B2, “Fatty acid derivative labeled with positron-emitting radionuclide” (ASTELLAS PHARMA INC., priority 2018, dated 2024):
“Also recorded” adds a separate entry of the source.

Tests used:
Format in all cases: in vivo
[1] = system: normal cynomolgus monkeys; test: PET test using normal cynomolgus monkey (SUV in heart muscle and bone ROI); details: for SUV (Bone): bone ROI (near the spine), n.d. = target organ cannot be confirmed in the image, ROI cannot be set; for accumulation to the heart muscle compared to [^18F]FTO / non-specific accumulation to the bone compared to [^18F]FTO: cynomolgus monkey PET, result in words; for SUV (Heart muscle): heart muscle ROI, about 300 MBq lower extremity vein, male cynomolgus monkey
Text: Solutions containing each compound prepared in Example 1 (7-[^18F]FTO), Example 2 (6-[^18F]FTO), Reference Example 4 ([^18F]FTO), Reference Example 5 (15-[^18F]FTO), and Reference Example 6 (17-[^18F]FTO) were used to perform a heart contrast PET test using normal cynomolgus monkeys.
For performing non-invasive PET imaging, in a state in which a male cynomolgus monkey was anesthetized with inhalation anesthetic isoflurane, the monkey was held at a supine body position on a PET camera SHR17000 (manufactured by Hamamatsu Photonics K.K.), the solution containing each compound (about 300 MBq) was administered from the lower extremity vein, and continuous imaging was performed for 180 minutes or 240 minutes after the administration. The PET images were reconstructed by dynamic row-action maximum likelihood algorithm (DRAMA) and average images are obtained every 20 minutes. Then, the region of interest (ROI) was set in the heart muscle region or bone (near the spine), and the accumulation (standardized uptake value (SUV)) of each compound was calculated as {radioactivity count in the ROI (MBq/cc)/[dose (MBq)/body weight (g)]}.
The SUV values quantified by setting the ROI for the heart muscle and the bone of each compound are shown in Tables 6 and 7 as SUV (heart muscle) and SUV (bone). […] A case where the target organ cannot be confirmed in the image and the ROI cannot be set is denoted as n.d, and a case where measurement is not performed is denoted as n.t. In addition, MIP (Maximum Intensity Projection) PET images 60 minutes and 240 minutes after the administration of the compounds of Reference Example 4 ([^18F]FTO) and Example 1 (7-[^18F]FTO) are shown in FIG. 1.

[2] = system: DBA2 mouse; test: PET test using normal mouse; radioactivity of isolated heart and femur by gamma counter; details: for SUV Femur: isolated femur; for SUV Femur / SUV Heart: 120 minutes after administration, about 10 MBq tail vein, male DBA2 mouse, gamma counter, average ± standard error of 5 cases; for SUV Heart: isolated heart
Method: A whole body contrast PET test was performed using the solution containing the compound of Example 1 (7-[^18F]FTO) or Reference Example 4 ([^18F]FTO) using a DBA2 mouse.
For performing non-invasive PET imaging, in a state in which a male DBA2 mouse was anesthetized with the inhalation anesthetic isoflurane, the mouse was held in a supine body position on a PET camera Inveon (manufactured by Siemens), the solution containing each compound (about 10 MBq) was administered from the tail vein, and after 90 minutes from the administration, PET imaging was performed for 5 minutes. The PET image was reconstructed and then image processing was performed. The heart and femur were isolated 120 minutes after the administration, and the amount of radioactivity was measured with a gamma counter 2480 WIZARD^2 (manufactured by PerkinElmer Inc.). The accumulation (SUV) of each compound was calculated as {radioactivity count (MBq/cc)/[dose (MBq)/body weight (g)] in the target organ}.

[3] = system: myocardial infarction model rat; test: PET test using model rat with myocardial infarction by coronary artery ligation; details: male SD rat, about 10 MBq tail vein, 20 minutes after administration, versus untreated rat
Method: A myocardial infarction model was prepared by coronary artery ligation using SD rats, and a thoracic contrast PET test was performed using the solution containing the compound of Example 1 (7-[^18F]FTO).
In a state in which an untreated rat or a model rat with myocardial infarction was anesthetized with the inhalation anesthetic isoflurane using a male SD rat, the rat was held in a supine body position on a PET camera Inveon (manufactured by Siemens), and the solution containing the compound (about 10 MBq) was administered from the tail vein. After 20 minutes from the administration, PET imaging was performed for 5 minutes. The PET image was reconstructed and then image processing was performed.

[4] = 20 Minutes after administration
[5] = 60 Minutes after administration
[6] = 120 Minutes after administration
[7] = 240 Minutes after administration
[8] = mouse, extracted organs, result in words

| SMILES | SUV (Bone) [1, 4] | SUV (Bone) [1, 5] | SUV (Bone) [1, 6] | SUV (Bone) [1, 7] | accumulation to the heart muscle compared to [^18F]FTO [1] | SUV (Heart muscle) [1, 4] | SUV (Heart muscle) [1, 5] | SUV (Heart muscle) [1, 6] | SUV (Heart muscle) [1, 7] | SUV Femur [2] | SUV Heart [2] | accumulation to the heart compared to Reference Example 4 [2, 8] | non-specific accumulation to the bone compared to [^18F]FTO [1] | non-specific accumulation to the bone compared to [^18F]FTO ([1]; listed as 15-[^18F]FTO) | non-specific accumulation to the bone compared to [^18F]FTO ([1]; listed as 17-[^18F]FTO) | non-specific accumulation to the bone compared to [^18F]FTO ([1]; listed as 7-[^18F]FTO) | non-specific accumulation in the bone compared to Reference Example 4 [2, 8] | coronal section PET image of the heart in the myocardial infarction model rat [3] |
| --- | --- | --- | --- | --- | --- | --- | --- | --- | --- | --- | --- | --- | --- | --- | --- | --- | --- | --- |
| CCCC([18F])CCCC/C=C\CCCCSCCC(=O)O (stereo not shown) [Reference Example 5, 3-{[(5Z)-11-[^18F]fluorotetradeca-5-en-1-yl]sulfanyl}propanoic acid] | 1.27 | 1.17 | 1.54 | 2.10 | slightly reduced | 4.79 | 3.60 | 3.21 | 2.78 | – | – | – | – | equivalent or reduced; also recorded: the accumulation in the bone was also observed | – | – | – | – |
| CCCCCCCC/C=C\CC([18F])CCSCCC(=O)O (stereo not shown) [Example 1, 3-{[(5Z)-3-[^18F]fluorotetradeca-5-en-1-yl]sulfanyl}propanoic acid] | – | – | – | – | further increased | 8.46 | 9.26 | 8.85 | 8.35 | 0.48 ± 0.04 | 3.53 ± 0.77 | excellent accumulation to the heart | – | – | – | equivalent or reduced; also recorded: not detected at all | low non-specific accumulation in the bone | the signal was deleted in a part of the elliptical heart |

Further lines, with some results ahead:

| SUV (Bone) [1, 4] | SUV (Bone) [1, 5] | SUV (Bone) [1, 6] | SUV (Bone) [1, 7] | accumulation to the heart muscle compared to [^18F]FTO [1] | SUV (Heart muscle) [1, 4] | SUV (Heart muscle) [1, 5] | SUV (Heart muscle) [1, 6] | SUV (Heart muscle) [1, 7] | SUV Femur [2] | SUV Heart [2] | accumulation to the heart compared to Reference Example 4 [2, 8] | non-specific accumulation to the bone compared to [^18F]FTO [1] | SMILES | non-specific accumulation to the bone compared to [^18F]FTO ([1]; listed as 15-[^18F]FTO) | non-specific accumulation to the bone compared to [^18F]FTO ([1]; listed as 17-[^18F]FTO) | non-specific accumulation to the bone compared to [^18F]FTO ([1]; listed as 7-[^18F]FTO) | non-specific accumulation in the bone compared to Reference Example 4 [2, 8] | coronal section PET image of the heart in the myocardial infarction model rat [3] |
| --- | --- | --- | --- | --- | --- | --- | --- | --- | --- | --- | --- | --- | --- | --- | --- | --- | --- | --- |
| 1.11 | 1.28 | 1.94 | 3.23 | slightly reduced | 5.88 | 5.78 | 4.86 | 2.60 | – | – | – | – | CC([18F])CCCCCC/C=C\CCCCSCCC(=O)O (stereo not shown) [Reference Example 6, 3-{[(5Z)-13-[^18F]fluorotetradeca-5-en-1-yl]sulfanyl}propanoic acid] | – | equivalent or reduced; also recorded: the accumulation in the bone was also observed | – | – | – |
| 1.42 ± 0.10 | 2.27 ± 0.13 | 3.82 ± 0.60 | 6.15 ± 1.02 | – | 6.45 ± 0.59 | 6.54 ± 0.51 | 5.90 ± 0.58 | 4.63 ± 0.57 | 2.03 ± 0.32 | 1.52 ± 0.25 | – | – | O=C(O)CCSCCCC/C=C\CCCCCCCC[18F] [Reference Example 4, 3-{[(5Z)-14-[^18F]fluorotetradeca-5-en-1-yl]sulfanyl}propanoic acid, reference compound] | – | – | – | – | – |
| 1.56 | 1.96 | 2.49 | – | further increased | 8.35 | 7.25 | 6.60 | – | – | – | – | equivalent or reduced | CCCCCCCC/C=C\CCC([18F])CSCCC(=O)O (stereo not shown) [Example 2, 3-{[(5Z)-2-[^18F]fluorotetradeca-5-en-1-yl]sulfanyl}propanoic acid] | – | – | – | – | – |
